Measurements: the supplement of paper PMC10307832

Assays:
Test in all cases: relative viability (nuclei count vs DMSO), 5 days (fraction); higher = more cells survive
Carboplatin + Pemetrexed = compound: C1CC(C1)(C(=O)O)C(=O)O.[NH2-].[NH2-].[Pt+2] [Carboplatin] + Nc1nc2[nH]cc(CCc3ccc(C(=O)N[C@@H](CCC(=O)O)C(=O)O)cc3)c2c(=O)[nH]1 [Pemetrexed] (partner 0.2 µM)
Summary of the method: (§1)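 Cells from lung cancer lines were seeded into 1536-well plates and, one day later, dosed by pin tool. Treatments were either a single drug or a fixed dose of an anchor drug with five library-drug doses (not always all listed) in √10 steps. After 5 days, nuclei were stained in a one-step fixation (final 0.05% Triton X-100, 1% formaldehyde, 1 ug/ml Hoechst) and counted on 4× images, and relative viability is the treated-to-vehicle nuclei ratio, as the median of duplicate plates.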

GSK126 + Bortezomib = compound: CC[C@H](C)N1C=C(C2=C(C=C(C=C21)C3=CN=C(C=C3)N4CCNCC4)C(=O)NCC5=C(C=C(NC5=O)C)C)C [GSK126] + CC(C)C[C@H](NC(=O)[C@H](Cc1ccccc1)NC(=O)c1cnccn1)B(O)O [Bortezomib] (partner 0.002 µM)
Summary of the method: as §1

GSK126 + Luminespib = compound: CC[C@H](C)N1C=C(C2=C(C=C(C=C21)C3=CN=C(C=C3)N4CCNCC4)C(=O)NCC5=C(C=C(NC5=O)C)C)C [GSK126] + CCNC(=O)c1noc(-c2cc(C(C)C)c(O)cc2O)c1-c1ccc(CN2CCOCC2)cc1 [Luminespib] (partner 0.01 µM)
Summary of the method: as §1

MLN4924 + Luminespib = compound: NS(=O)(=O)OC[C@@H]1C[C@@H](n2ccc3c(N[C@H]4CCc5ccccc54)ncnc32)C[C@@H]1O [MLN4924] + CCNC(=O)c1noc(-c2cc(C(C)C)c(O)cc2O)c1-c1ccc(CN2CCOCC2)cc1 [Luminespib] (partner 0.01 µM)
Summary of the method: as §1

Cell Line | relative viability (Carboplatin + Pemetrexed; first compound 0.08 µM) | relative viability (Carboplatin + Pemetrexed; first compound 0.253 µM) | relative viability (Carboplatin + Pemetrexed; first compound 0.8 µM) | relative viability (Carboplatin + Pemetrexed; first compound 2.53 µM) | relative viability (Carboplatin + Pemetrexed; first compound 8 µM) | relative viability (GSK126 + Bortezomib; first compound 0.08 µM) | relative viability (GSK126 + Bortezomib; first compound 0.253 µM) | relative viability (GSK126 + Bortezomib; first compound 0.8 µM) | relative viability (GSK126 + Bortezomib; first compound 2.53 µM) | relative viability (GSK126 + Bortezomib; first compound 8 µM) | relative viability (GSK126 + Luminespib; first compound 0.08 µM) | relative viability (GSK126 + Luminespib; first compound 0.253 µM) | relative viability (GSK126 + Luminespib; first compound 0.8 µM) | relative viability (GSK126 + Luminespib; first compound 2.53 µM) | relative viability (GSK126 + Luminespib; first compound 8 µM) | relative viability (MLN4924 + Luminespib; first compound 0.04 µM) | relative viability (MLN4924 + Luminespib; first compound 0.1265 µM) | relative viability (MLN4924 + Luminespib; first compound 0.4 µM) | relative viability (MLN4924 + Luminespib; first compound 1.265 µM) | relative viability (MLN4924 + Luminespib; first compound 4 µM)
NCI-H1437 | 0.33 | 0.28 | 0.301 | 0.307 | 0.298 | 0.528 | 0.504 | 0.442 | 0.45 | 0.518 | 1.09 | 1.07 | 1.04 | 1.11 | 1.06 | 0.783 | 1.05 | 0.811 | 0.626 | 0.226
NCI-H1563 | 0.941 | 0.751 | 0.73 | 0.755 | 0.791 | 0.948 | 0.924 | 0.937 | 0.887 | 0.834 | 0.546 | 0.491 | 0.535 | 0.514 | 0.505 | 0.556 | 0.539 | 0.53 | 0.435 | 0.407
NCI-H1650 | 0.459 | 0.46 | 0.302 | 0.32 | 0.318 | 0.233 | 0.25 | 0.185 | 0.183 | 0.19 | 0.217 | 0.193 | 0.188 | 0.166 | 0.205 | 0.225 | 0.217 | 0.243 | 0.224 | 0.203
NCI-H1651 | 0.702 | 0.61 | 0.552 | 0.534 | 0.56 | 1.03 | 0.949 | 0.981 | 1.01 | 0.996 | 0.966 | 0.948 | 0.766 | 0.732 | 0.817 | 0.725 | 0.745 | 0.607 | 0.315 | 0.224
NCI-H1666 | 0.876 | 0.857 | 0.845 | 0.846 | 0.819 | 0.826 | 0.962 | 0.814 | 0.808 | 1.01 | 1.04 | 0.926 | 0.858 | 0.855 | 0.907 | 1 | 1.05 | 0.498 | 0.324 | 0.342
NCI-H1734 | 0.423 | 0.422 | 0.495 | 0.408 | 0.419 | 0.98 | 0.979 | 1.02 | 0.87 | 0.871 | 0.179 | 0.231 | 0.117 | 0.176 | 0.213 | 0.202 | 0.189 | 0.187 | 0.122 | 0.137
NCI-H1755 | 0.436 | 0.371 | 0.437 | 0.443 | 0.386 | 0.979 | 0.978 | 1.05 | 0.839 | 0.922 | 0.435 | 0.519 | 0.58 | 0.381 | 0.501 | 0.441 | 0.443 | 0.238 | 0.221 | 0.231
NCI-H1792 | 1.21 | 0.75 | 0.755 | 0.811 | 0.608 | 0.973 | 1.02 | 0.991 | 0.91 | 0.948 | 0.386 | 0.401 | 0.443 | 0.483 | 0.355 | 0.515 | 0.436 | 0.495 | 0.321 | 0.359
NCI-H1915 | 0.487 | 0.531 | 0.505 | 0.47 | 0.416 | 1.02 | 0.964 | 0.991 | 0.979 | 0.998 | 0.986 | 0.771 | 0.788 | 0.823 | 0.841 | 0.728 | 0.639 | 0.761 | 0.231 | 0.17
NCI-H1975 | 0.297 | 0.266 | 0.277 | 0.298 | 0.268 | 0.509 | 0.31 | 0.361 | 0.392 | 0.343 | 0.292 | 0.257 | 0.185 | 0.198 | 0.12 | 0.322 | 0.556 | 0.36 | 0.382 | 0.252
NCI-H1993 | 0.684 | 0.568 | 0.513 | 0.67 | 0.608 | 1.23 | 1.06 | 1.11 | 1.04 | 0.995 | 0.829 | 0.931 | 0.363 | 0.877 | 0.832 | 0.482 | 0.458 | 0.441 | 0.406 | 0.47
NCI-H2009 | 1.04 | 0.983 | 1 | 0.958 | 0.654 | 1.3 | 0.951 | 0.992 | 1.16 | 1.09 | 1.1 | 1.01 | 0.968 | 1.06 | 1.09 | 0.924 | 0.553 | 0.292 | 0.18 | 0.139
NCI-H2023 | 0.248 | 0.209 | 0.196 | 0.15 | 0.152 | 1.45 | 1.01 | 1.19 | 1.39 | 1.37 | 0.728 | 0.759 | 0.698 | 0.656 | 0.66 | 0.651 | 0.539 | 0.179 | 0.0673 | 0.0714
NCI-H2085 | 1.03 | 0.846 | 0.974 | 0.948 | 0.899 | 1.19 | 0.998 | 1.12 | 1.04 | 1.05 | 0.52 | 0.514 | 0.414 | 0.406 | 0.623 | 0.422 | 0.407 | 0.534 | 0.375 | 0.311
NCI-H2087 | 0.619 | 0.647 | 0.618 | 0.632 | 0.604 | 1.02 | 0.668 | 0.94 | 0.941 | 0.907 | 0.144 | 0.134 | 0.142 | 0.165 | 0.185 | 0.143 | 0.148 | 0.139 | 0.129 | 0.0909
NCI-H2126 | 0.759 | 0.64 | 0.724 | 0.698 | 0.647 | 1.09 | 1.19 | 1.12 | 1.08 | 1.1 | 1 | 0.924 | 0.873 | 0.972 | 0.734 | 0.898 | 0.843 | 0.609 | 0.472 | 0.309
NCI-H2228 | 0.397 | 0.338 | 0.311 | 0.376 | 0.313 | 1.01 | 0.787 | 0.763 | 1.08 | 1.05 | 0.173 | 0.12 | 0.116 | 0.118 | 0.205 | 0.178 | 0.181 | 0.195 | 0.19 | 0.113
NCI-H2347 | 0.432 | 0.452 | 0.403 | 0.407 | 0.525 | 0.931 | 0.924 | 0.917 | 1.36 | 0.89 | 0.757 | 0.701 | 0.308 | 0.392 | 0.267 | 0.397 | 0.351 | 0.575 | 0.332 | 0.255
NCI-H2405 | 1.16 | 1.03 | 1.05 | 0.977 | 0.737 | 0.988 | 0.974 | 0.985 | 0.982 | 0.975 | 0.946 | 0.74 | 0.711 | 0.695 | 0.604 | 0.608 | 0.469 | 0.518 | 0.286 | 0.241
NCI-H3122 | 0.198 | 0.202 | 0.189 | 0.191 | 0.183 | 1.01 | 1.04 | 0.994 | 1.01 | 1.07 | 0.0614 | 0.0957 | 0.0787 | 0.0846 | 0.103 | 0.078 | 0.063 | 0.0724 | 0.0583 | 0.0491
PC-3 [JPC-3] | 1.28 | 0.986 | 1.02 | 0.939 | 0.889 | 0.823 | 1.01 | 0.786 | 0.817 | 0.856 | 0.75 | 0.728 | 0.745 | 0.708 | 0.734 | 0.799 | 0.773 | 0.552 | 0.346 | 0.327
PC-14 | 0.127 | 0.131 | 0.143 | 0.11 | 0.0992 | 0.774 | 0.943 | 0.895 | 0.781 | 0.782 | 0.163 | 0.144 | 0.174 | 0.155 | 0.114 | 0.151 | 0.164 | 0.114 | 0.116 | 0.152
RERF-LC-KJ | 0.492 | 0.475 | 0.479 | 0.458 | 0.438 | 1.14 | 1.23 | 0.938 | 1.16 | 1.07 | 1.22 | 1.09 | 1.31 | 1.3 | 1.16 | 1.01 | 0.629 | 0.328 | 0.265 | 0.272
SK-LU-1 | 1.11 | 0.937 | 0.958 | 0.899 | 0.676 | 1.19 | 0.95 | 1.19 | 1.38 | 1.05 | 0.194 | 0.192 | 0.215 | 0.182 | 0.214 | 0.18 | 0.228 | 0.215 | 0.186 | 0.147
SW 1573 | 0.92 | 0.924 | 1.18 | 1.01 | 0.569 | 1.06 | 1.1 | 0.989 | 1.01 | 1.26 | 0.424 | 0.374 | 0.196 | 0.43 | 0.16 | 0.259 | 0.365 | 0.0849 | 0.0812 | 0.0892
